Experimental data: patent US20190345250A1, “ANTIBODY DRUG CONJUGATES” (NOVARTIS AG, priority 2013, published 2019)

Columns and labels:
[1] = tested on: CHGA119 patient-derived primary gastric tumor xenograft model; test: Antitumor activity and body weight in CHGA119 patient-derived xenograft
Text: In these studies, CHGA119 tumor fragments in size of 2mm ×2mm×2mm were implanted subcutaneously (s.c.) into female nu/nu athymic mice. […] Tumors were calipered twice a week.

complement factor Clq = target: T1, complement factor Clq (Homo sapiens, UniProt P02745+P02746+P02747); test: Clq binding ELISA; conditions: antibody coated 25 to 0.02 μg/ml
T1 construct: purchased Sigma C1740-1mg
Procedure: In additional studies, the ability of the unconjugated anti-FGFR2 antibodies to bind the complement factor Clq was evaluated. The binding of the complement factor Clq is the initial step leading to complement dependent cytotoxicity (CDC) and cell lysis in vivo. In these studies the surface of the wells of 96-well microtiterplates (Nunc, Maxisorp, catalog # 439454) were coated with serial dilutions of the antibodies 12433, 12425, N297A_12425 and 10164 over night at 4° C. in the dark (all in a concentration range from 25 to 0.02 μg/ml). The commercially available antibody, Rituximab served as a positive control. In order to monitor the amount of bound antibody analyte on the microtiterplate, this procedure was performed twice per plate utilizing the second dilution (in triplicate) for determining the coating efficacy of the analyte to the plate. Clq binding was quantified by adding a constant concentration of Clq (Sigma; Complement component Clq catalog # C1740-1mg) and detected using a polyclonal goat-anti-human Clq antibody conjugated to Horse Radish Peroxidase HRP (AbD Serotec; Sheep Anti-Human Clq:HRP; Catalogue number 2221-5004P). The control of the coating efficiency was determined in the second dilution series with a peroxidase-conjugated goat-anti-human IgG antibody fragment (Jackson ImmunoResearch; catalog # 109-036-003; AffiniPure F(ab′2) fragment Goat Anti-Human IgG (H+L)). […]

[2] = CHGA119-tumor bearing mice, ADCs 10 mg/kg i.v. q2wk, BGJ398 10 mg/kg p.o. qd

T1 sequence (P02745 23-245): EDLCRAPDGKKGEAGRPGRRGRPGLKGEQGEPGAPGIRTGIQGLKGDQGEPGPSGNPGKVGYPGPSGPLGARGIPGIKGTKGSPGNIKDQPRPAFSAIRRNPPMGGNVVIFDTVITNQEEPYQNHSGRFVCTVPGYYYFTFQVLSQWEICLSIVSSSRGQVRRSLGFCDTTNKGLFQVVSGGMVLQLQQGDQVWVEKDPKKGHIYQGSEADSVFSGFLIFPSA
T1 sequence (P02746 28-253): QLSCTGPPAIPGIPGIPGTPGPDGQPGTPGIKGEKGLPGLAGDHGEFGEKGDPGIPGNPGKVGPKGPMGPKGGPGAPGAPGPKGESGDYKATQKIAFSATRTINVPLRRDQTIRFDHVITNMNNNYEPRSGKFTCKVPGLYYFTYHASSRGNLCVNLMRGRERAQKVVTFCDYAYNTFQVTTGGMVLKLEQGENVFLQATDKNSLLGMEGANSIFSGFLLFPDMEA
T1 sequence (P02747 29-245): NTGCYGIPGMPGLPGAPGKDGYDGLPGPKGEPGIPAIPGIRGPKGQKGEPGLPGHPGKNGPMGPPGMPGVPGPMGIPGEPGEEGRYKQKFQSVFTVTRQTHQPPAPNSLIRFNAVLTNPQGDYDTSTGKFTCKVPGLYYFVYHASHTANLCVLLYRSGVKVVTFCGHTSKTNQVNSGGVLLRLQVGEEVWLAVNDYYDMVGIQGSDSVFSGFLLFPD

| Clq binding potency (EC50) (complement factor Clq) | Compound | Host response: % body weight change (mean ± SEM) [1, 2] | Host response: Mean body weight change (g ± SEM) [1, 2] | Host response: Survival (survivors/total) [1, 2] | T/C ([1]; single agent, 10 mg/kg, after 5 weeks of treatment) |
| --- | --- | --- | --- | --- | --- |
|  | CCN1CCN(c2ccc(Nc3cc(N(C)C(=O)Nc4c(Cl)c(OC)cc(OC)c4Cl)ncn3)cc2)CC1 [BGJ398, 3-(2,6-Dichloro, 3,5-dimethoxy-phenyl)-1-{6-[4-(4-ethyl-piperazin-1-yl)-phenylamino]-pyrimidin-4-yl}-1-methyl-urea] | −3.7 ± 3% | -0.8 ± 0.7 g | 8/8 | 33% |
| about the same | Rituximab: commercially available antibody, positive control for Clq binding |  |  |  |  |
